Patent publication US20240383908A1, “SYNTHESIS AND APPLICATION OF PHOSPHATASE DEGRADER” (HINOVA PHARMACEUTICALS INC., priority 2021, published 2024)
Counter-ions that a name gives are not always drawn.

biological target: T1, SHP2 protein (Homo sapiens, UniProt Q06124); assay: Degradation activity on SHP2 protein in MIA Paca-2 cells (Western blot, DC50); type: cell-based; set-up: endogenous in cells; host or cells: MIA Paca-2 cells; settings: read-out: Degradation activity for differenct cell lines MIA Paca-2 (DC50)
T1 sequence (Q06124 1-593): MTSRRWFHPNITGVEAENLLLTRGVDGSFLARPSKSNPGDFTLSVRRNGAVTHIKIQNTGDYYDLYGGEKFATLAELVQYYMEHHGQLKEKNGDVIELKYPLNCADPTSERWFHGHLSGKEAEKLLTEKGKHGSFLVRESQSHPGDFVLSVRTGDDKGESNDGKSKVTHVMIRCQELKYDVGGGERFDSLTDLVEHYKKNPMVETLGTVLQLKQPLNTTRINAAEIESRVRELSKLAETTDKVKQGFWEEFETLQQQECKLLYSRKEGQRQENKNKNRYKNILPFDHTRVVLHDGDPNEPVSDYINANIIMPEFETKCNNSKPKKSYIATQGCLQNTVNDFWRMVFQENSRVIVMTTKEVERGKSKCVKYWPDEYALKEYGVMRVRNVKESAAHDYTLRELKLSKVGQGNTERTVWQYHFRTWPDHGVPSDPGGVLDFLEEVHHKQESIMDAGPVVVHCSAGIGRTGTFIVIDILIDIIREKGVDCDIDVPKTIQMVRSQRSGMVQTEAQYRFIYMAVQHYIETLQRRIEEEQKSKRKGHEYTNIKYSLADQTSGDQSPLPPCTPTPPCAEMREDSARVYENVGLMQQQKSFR
Method: (1) MV-411 cells were cultured in the cell culture medium, and then well-growing cells were selected and inoculated in a 12-well plate, with 1 mL/well and 1×10^6 cells/well. The plate was incubated overnight in a 5% CO2 cell incubator at 37° C.
(2) 10 mM storage solution of each drug was prepared using dimethylsulfoxide (DMSO). The stock solution was diluted gradually with DMSO before use, and then 1 μL of the compound solution was added to the cell culture well (to ensure that the DMSO concentration in the culture system was […]), so that the final drug concentration is 100 nM, 10 nM, 3 nM, 1 nM, 0.3 nM, and 0.1 nM. Two wells were set for each concentration. The plate was gently shaken and mixed. Additionally, negative control wells (containing an equal amount of DMSO) and positive control wells were included.
(3) After 24 hours of cultivation, the cells were lysed using RIPA cell lysate, and the proteins were extracted. The protein concentration was measured using a BCA assay kit. 5× concentrated protein buffer was loaded, heated at 100° C. for 5 min, and then the sample was stored at −20° C.
(4) For each well, 30 μg of protein was loaded to polyacrylamide gel for electrophoresis.
(5) The protein was transferred from polyacrylamide gel to PVDF membrane, and sealed at room temperature with 5% skimmed milk for 1 h, which was then incubated with the primary antibodies (Anti-SHP2 rabbit mAb and Anti-GAPDH rabbit mAb) at 4° C. overnight. The membrane was washed three times with TBST solution, 10 minutes for each time. After that, the membrane was incubated with the secondary antibodies (horseradish peroxidase labeled goat anti-rabbit IgG) at room temperature for 2 h, and then washed three times with TBST solution, 10 minutes for each time, followed by exposure.
(6) The images were analyzed with Image J grayscale, and the degradation ratio of protein bands in the test group was calculated, based on the negative control group (DMSO) (100%).
(7) Using the Dose-response-inhibition equation in the data processing software GraphPad Prism 8, the DC50 value was obtained (which represents the drug concentration corresponding to 50% degradation of the target protein).
Using similar methods and different cell lines, the degradation activity of the compound according to the present invention on SHP2 protein of different cell lines was tested under suitable culture conditions.

Row | Structure (SMILES) | DC50
1 | C[C@@H]1OCC2(CCN(c3cnc(Sc4cccc(NC(=O)CCN5CC=C(c6ccc(C(=O)N7CCN(c8ccc9c(c8)CN(C8CCC(=O)NC8=O)C9=O)CC7)nc6)C(C)(C)C5)c4)cn3)CC2)[C@@H]1N (stereo partly drawn) [Compound 276] | > 1000 nM
2 | CC1(N)CCN(c2cnc(Sc3cccc(NC(=O)c4ccc(N5CCC(N6CCN(c7ccc8c(c7)C(=O)N(C7CCC(=O)NC7=O)C8=O)CC6)CC5)c(F)c4)c3)cn2)CC1 (stereo not drawn) [Compound 277] | > 1000 nM
3 | CC1(N)CCN(c2cnc(Sc3cccc(NC(=O)c4ccc(N5CCC(N6CCN(c7ccc8c(c7)CN(C7CCC(=O)NC7=O)C8=O)CC6)CC5)c(F)c4)c3)cn2)CC1 (stereo not drawn) [Compound 278] | > 1000 nM
4 | C[C@@H]1OCC2(CCN(c3cnc(Sc4cccc(NC(=O)c5ccc(N6CCC(N7CCN(c8ccc9c(c8)C(=O)N(C8CCC(=O)NC8=O)C9=O)CC7)CC6)c(F)c5)c4)cn3)CC2)[C@@H]1N (stereo partly drawn) [Compound 279] | > 1000 nM
5 | C[C@@H]1OCC2(CCN(c3cnc(Sc4cccc(NC(=O)c5ccc(N6CCC(N7CCN(c8ccc9c(c8)CN(C8CCC(=O)NC8=O)C9=O)CC7)CC6)c(F)c5)c4)cn3)CC2)[C@@H]1N (stereo partly drawn) [Compound 280] | > 1000 nM
6 | CC1(N)CCN(c2cnc(Sc3cccc(NC(=O)[C@H]4C[C@@H]4c4ccc(N5CCN(c6ccc(C(=O)NCc7ccc8c(c7)CN(C7CCC(=O)NC7=O)C8=O)nn6)CC5)c(F)c4)c3)cn2)CC1 (stereo partly drawn) [Compound 281] | > 1000 nM
7 | C[C@@H]1OCC2(CCN(c3cnc(Sc4cccc(NC(=O)[C@H]5C[C@@H]5c5ccc(N6CCN(c7ccc(C(=O)NCc8ccc9c(c8)CN(C8CCC(=O)NC8=O)C9=O)nn7)CC6)c(F)c5)c4)cn3)CC2)[C@@H]1N (stereo partly drawn) [Compound 282] | > 1000 nM
8 | CC1(N)CCN(c2cnc(Sc3cccc(NC(=O)[C@H]4C[C@@H]4c4ccc(N5CCN(c6ccc(C(=O)N7CCN(c8ccc9c(c8)CN(C8CCC(=O)NC8=O)C9=O)CC7)nn6)CC5)c(F)c4)c3)cn2)CC1 (stereo partly drawn) [Compound 283] | > 1000 nM
9 | C[C@@H]1OCC2(CCN(c3cnc(Sc4cccc(NC(=O)[C@H]5C[C@@H]5c5ccc(N6CCN(c7ccc(C(=O)N8CCN(c9ccc%10c(c9)CN(C9CCC(=O)NC9=O)C%10=O)CC8)nn7)CC6)c(F)c5)c4)cn3)CC2)[C@@H]1N (stereo partly drawn) [Compound 284] | < 100 nM
10 | C[C@@H]1OCC2(CCN(c3cnc(Sc4cccc(NC(=O)c5ccc(CN6CCN(c7ccc8c(c7)CN(C7CCC(=O)NC7=O)C8=O)CC6)cc5)c4)cn3)CC2)[C@@H]1N (stereo partly drawn) [Compound 285] | > 1000 nM
11 | CC1(N)CCN(c2cnc(Sc3cccc(NC(=O)c4ccc(CN5CCN(c6ccc7c(c6)CN(C6CCC(=O)NC6=O)C7=O)CC5)cc4)c3)cn2)CC1 (stereo not drawn) [Compound 286] | > 1000 nM
12 | C[C@@H]1OCC2(CCN(c3cnc(Sc4cccc(NC(=O)c5ccc(CN6CCN(c7ccc8c(c7)C(=O)N(C7CCC(=O)NC7=O)C8=O)CC6)cc5)c4)cn3)CC2)[C@@H]1N (stereo partly drawn) [Compound 287] | > 1000 nM
13 | CC1(N)CCN(c2cnc(Sc3cccc(NC(=O)c4ccc(CN5CCN(c6ccc7c(c6)C(=O)N(C6CCC(=O)NC6=O)C7=O)CC5)cc4)c3)cn2)CC1 (stereo not drawn) [Compound 288] | > 1000 nM

Now from value to compound:

Row | DC50 | Structure (SMILES)
14 | > 1000 nM | C[C@@H]1OCC2(CCN(c3cnc(Sc4cccc(NC(=O)CCN5CCN(c6ccc(C(=O)NCc7ccc8c(c7)CN(C7CCC(=O)NC7=O)C8=O)nn6)CC5)c4)cn3)CC2)[C@@H]1N (stereo partly drawn) [Compound 289]
15 | > 1000 nM | CC1(N)CCN(c2cnc(Sc3cccc(NC(=O)C4CC45CCN(C4CCN(c6ccc(C(=O)NCc7ccc8c(c7)CN(C7CCC(=O)NC7=O)C8=O)nn6)CC4)CC5)c3)cn2)CC1 (stereo not drawn) [Compound 290]
16 | > 1000 nM | CC1(N)CCN(c2cnc(Sc3cccc(NCc4ccc(N5CCC(N6CCN(c7ccc8c(c7)C(=O)N(C7CCC(=O)NC7=O)C8)CC6)CC5)c(F)c4)c3)cn2)CC1 (stereo not drawn) [Compound 291]
17 | < 100 nM | Cc1ncsc1-c1ccc([C@H](C)NC(=O)[C@@H]2C[C@@H](O)CN2C(=O)[C@@H](NC(=O)c2cnc(N3CCN(C4CC(C(=O)Nc5cccc(Sc6cnc(N7CCC8(CC7)CO[C@@H](C)[C@H]8N)cn6)c5)C4)CC3)nc2)C(C)(C)C)cc1 (stereo partly drawn) [Compound 294, 2-(4-(3-((3-((5-((3S,4S)-4-amino-3-methyl-2-oxa-8-azaspiro[4.5]decan-8-yl)pyrazin-2-yl)thio)phenyl)carbamoyl)cyclobutyl)piperazin-1-yl)-N—((S)-1-((2S,4R)-4-hydroxyl-2-(((S)-1-(4-(4-methylthiazol-5-yl)phenyl)ethyl)carbamoyl)pyrrolin-1-yl)-3,3-dimethyl-1-oxobutane-2-yl)pyrimidine-5-formamide hydrochloride]
18 | < 100 nM | CC1(N)CCN(c2cnc(Sc3cccc(NC(=O)c4ccc(N5CCC(N6CC=C(c7ccc(C(=O)NCc8ccc9c(c8)CN(C8CCC(=O)NC8=O)C9=O)nc7)CC6)CC5)c(F)c4)c3)cn2)CC1 (stereo not drawn) [Compound 295, hydrochloride]
19 | < 100 nM | CC1(N)CCN(c2cnc(Sc3cccc(NC(=O)C4CC(N5CCC(N6CC=C(c7ccc(C(=O)NCc8ccc9c(c8)CN(C8CCC(=O)NC8=O)C9=O)nn7)CC6)CC5)C4)c3)cn2)CC1 (stereo not drawn) [Compound 296]
20 | > 1000 nM | C[C@@H]1OCC2(CCN(c3cnc(Sc4cccc(NC(=O)c5cccc(CN6CCN(c7ccc8c(c7)CN(C7CCC(=O)NC7=O)C8=O)CC6)c5)c4)cn3)CC2)[C@@H]1N (stereo partly drawn) [Compound 297]
21 | > 1000 nM | CC1(N)CCN(c2cnc(Sc3cccc(NC(=O)c4cccc(CN5CCN(c6ccc7c(c6)CN(C6CCC(=O)NC6=O)C7=O)CC5)c4)c3)cn2)CC1 (stereo not drawn) [Compound 298]
22 | > 1000 nM | CC1(N)CCN(c2cnc(Sc3cccc(NC(=O)C4CC45CCN(c4ccc(C(=O)NCc6ccc7c(c6)CN(C6CCC(=O)NC6=O)C7=O)nn4)CC5)c3)cn2)CC1 (stereo not drawn) [Compound 299]
23 | > 1000 nM | CC1(N)CCN(c2cnc(Sc3cccc(NC(=O)C4CC(N5CC=C(c6ccc(C(=O)NCc7ccc8c(c7)C(=O)N(C7CCC(=O)NC7=O)C8)nc6)CC5)C4)c3)cn2)CC1 (stereo not drawn) [Compound 302]
24 | < 100 nM | CC1(N)CCN(c2cnc(Sc3cccc(NC(=O)c4ccc(N5CCC(N6CC=C(c7ccc(C(=O)NCc8ccc9c(c8)CN(C8CCC(=O)NC8=O)C9=O)nc7)C(C)(C)C6)CC5)cc4)c3)cn2)CC1 (stereo not drawn) [Compound 303]
25 | < 100 nM | CC1(N)CCN(c2cnc(Sc3cccc(NC(=O)c4ccc(N5CCC(N6CC=C(c7ccc(C(=O)N8CCN(c9ccc%10c(c9)CN(C9CCC(=O)NC9=O)C%10=O)CC8)nc7)C(C)(C)C6)CC5)cc4)c3)cn2)CC1 (stereo not drawn) [Compound 304]
26 | > 1000 nM | CC1(N)CCN(c2cnc(Sc3cccc(NC(=O)C4CCC(N5CC=C(c6ccc(C(=O)N7CCN(c8ccc9c(c8)CN(C8CCC(=O)NC8=O)C9=O)CC7)nc6)CC5)CC4)c3)cn2)CC1 (stereo not drawn) [Compound 305]
27 | > 1000 nM | CC1(N)CCN(c2cnc(Sc3cccc(NC(=O)c4ccc(N5CCC(C(=O)NCc6ccc7c(c6)CN(C6CCC(=O)NC6=O)C7=O)CC5)c(F)c4)c3)cn2)CC1 (stereo not drawn) [Compound 306]
28 | < 100 nM | CC1(N)CCN(c2cnc(Sc3cccc(NC(=O)c4ccc(C5=CCC(N6CC=C(c7ccc(C(=O)NCc8ccc9c(c8)CN(C8CCC(=O)NC8=O)C9=O)nc7)CC6)CC5)cc4)c3)cn2)CC1 (stereo not drawn) [Compound 307]
29 | < 100 nM | CC1(N)CCN(c2cnc(Sc3cccc(NC(=O)c4ccc(C5=CCC(N6CC=C(c7ccc(C(=O)N8CCN(c9ccc%10c(c9)CN(C9CCC(=O)NC9=O)C%10=O)CC8)nc7)CC6)CC5)cc4)c3)cn2)CC1 (stereo not drawn) [Compound 308]
30 | < 100 nM | CC1(N)CCN(c2cnc(Sc3cccc(NC(=O)c4ccc(C5=CCC(N6CC=C(c7ccc(C(=O)NCc8ccc9c(c8)CN(C8CCC(=O)NC8=O)C9=O)nn7)CC6)CC5)cc4)c3)cn2)CC1 (stereo not drawn) [Compound 309]
